Data: US20080200403A1, “9A-Carbamoyl and Thiocarbamoyl Azalides with Anti-Inflammatory Activity” (GLAXOSMITHKLINE, priority 2005, published 2008)
Like-named read-outs stand apart in the source and are kept apart here.

Experiments:
Format in all cases: cell-based
IL-8 = experiment: Inhibition of IL-8 production by stimulated human peripheral blood leukocytes in vitro; conditions: Homo sapiens, Leukocyte, PBL, read-out: Percentage of inhibition of IL-8 production; for inhibition at 10 µM: compound 10 μM; for inhibition at 50 µM: compound 50 μM
Summary of the method: (§1)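 Dextran-isolated human PBL (3-5×10^6 per well) in RPMI with 10% FCS were preincubated 2 h at 37 °C with compounds at 50 μM or 10 μM final, then stimulated overnight with 2 μg/mL LPS, 1 μg/mL PMA or 120 μg/mL zymosan. Supernatant cytokines by sandwich ELISA; % inhibition versus stimulated untreated control.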

TNF-α = experiment: Inhibition of TNF-α production by stimulated human peripheral blood leukocytes in vitro; conditions: Homo sapiens, Leukocyte, PBL, read-out: Percentage of inhibition of TNF-α production; for inhibition at 10 µM: compound 10 μM; for inhibition at 50 µM: compound 50 μM
Summary of the method: as §1

[1] = system: human peripheral blood mononuclear cells (PBMC); experiment: Human T-cell proliferation in vitro (3H-thymidine incorporation); conditions: Homo sapiens, PBMC, read-out: Percentage of inhibition of proliferation of stimulated PBMC; for inhibition at 10 µM: compound 10 μM; for inhibition at 50 µM: compound 50 μM
Summary of the method: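 Donor PBMC isolated on Histopaque, 5×10^4 cells/well cultured 3 days at 37 °C with PHA (2.5 μg/mL) or PMA (10 ng/mL) plus ionomycin (500 ng/mL), and compound at 50 μM or 10 μM. 3H-thymidine pulse during final 18 h; % inhibition versus stimulated untreated cpm.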

IL-1α = experiment: Inhibition of IL-1 production by stimulated human peripheral blood leukocytes in vitro; conditions: Homo sapiens, Leukocyte, PBL, read-out: Percentage of inhibition of IL-1α production; for inhibition at 10 µM: compound 10 μM; for inhibition at 50 µM: compound 50 μM
IL-6 = experiment: Inhibition of IL-6 production by stimulated human peripheral blood leukocytes in vitro; conditions: Homo sapiens, Leukocyte, PBL, read-out: Percentage of inhibition of IL-6 production; for inhibition at 10 µM: compound 10 μM; for inhibition at 50 µM: compound 50 μM
Summary of the method: as §1

human granulocytes = experiment: Oxidative burst inhibition assay on granulocytes (luminol); conditions: Homo sapiens; for inhibition at 12.5 µM: compound 12.5 μM; for inhibition at 50 µM: compound 50 μM
Description: Granulocytes were obtained from heparinized whole blood using density gradient centrifugation. Erythrocytes were sedimented on 3% dextran T-500 (Amersham Pharmacia Biotech AB, Uppsala, Sweden). Leukocytes were centrifuged on Ficoll (Amersham Pharmacia Biotech AB, Uppsala, Sweden) for 35 min at 600 g at 20° C. The pellet of granulocytes was cleared from remaining erythrocytes by a brief hypotonic lysis.
The effect of compounds on oxidative burst was investigated in vitro with oxidative burst assay in human granulocytes, isolated as described above. Assay was done in 96 well plate. Blood was obtained from healthy volunteers (Transfusion Center, Croatia) and human granulocytes were isolated by dextran sedimentation and ficoll extraction method, as described above. In each well 50000 isolated granulocytes were suspended in 100 μL of DMEM. Final concentrations of the tested compounds were 50 and 12.5 μM. Than, 50 μL of luminol (c=0.25 mg/mL) was added. Luminol as a detector of oxidative burst react with superoxide and light is produced as one of the reaction products. Subsequently, 50 μL of stimuli, phorbol-12-myristate acetate (PMA) (c=33 ng/mL) or Zymosan (c=120 μg/mL), were added.

[2] = PMA stimulated granulocytes, read-out: % inhibition of Oxidative burst PMA
[3] = Zymosan stimulated granulocytes, read-out: % inhibition of Oxidative burst Zymosan

Row | SMILES | inhibition at 10 µM (IL-8; LPS stimulated) [%] | inhibition at 50 µM (IL-8; LPS stimulated) [%] | inhibition at 10 µM (IL-8; PMA stimulated) [%] | inhibition at 50 µM (IL-8; PMA stimulated) [%] | inhibition at 10 µM (IL-8; zymosan stimulated) [%] | inhibition at 50 µM (IL-8; zymosan stimulated) [%] | inhibition at 10 µM (TNF-α; LPS stimulated) [%] | inhibition at 50 µM (TNF-α; LPS stimulated) [%] | inhibition at 10 µM (TNF-α; PMA stimulated) [%] | inhibition at 50 µM (TNF-α; PMA stimulated) [%] | inhibition at 10 µM (TNF-α; zymosan stimulated) [%] | inhibition at 50 µM (TNF-α; zymosan stimulated) [%] | inhibition at 10 µM ([1]; PHA stimulated) [%] | inhibition at 50 µM ([1]; PHA stimulated) [%] | inhibition at 10 µM ([1]; PMA + ionomycin stimulated) [%] | inhibition at 50 µM ([1]; PMA + ionomycin stimulated) [%] | inhibition at 10 µM (IL-1α; LPS stimulated) [%] | inhibition at 50 µM (IL-1α; LPS stimulated) [%] | inhibition at 10 µM (IL-1α; PMA stimulated) [%] | inhibition at 50 µM (IL-1α; PMA stimulated) [%] | further results
1 | CC[C@H]1OC(=O)[C@H](C)[C@@H](O[C@H]2C[C@@](C)(OC)[C@@H](O)[C@H](C)O2)[C@H](C)[C@@H](O[C@@H]2O[C@H](C)C[C@H](N(C)C)[C@H]2O)[C@](C)(O)C[C@@H](C)CN(C)[C@H](C)[C@@H](O)[C@]1(C)O [Azithromycin, azithromycin, reference compound] | 0 | 0 | 0 | 0 | 0 | 0 | 36 | 20 | 0 | 0 | 6 | 64 | 5 | 29 | 9 | 31 | 28 | 48 | 0 | 0 | inhibition at 10 µM (IL-1α; zymosan stimulated): 20%; inhibition at 50 µM (IL-1α; zymosan stimulated): 75%; inhibition at 10 µM (IL-6; LPS stimulated): 15%; inhibition at 50 µM (IL-6; LPS stimulated): 40%; inhibition at 10 µM (IL-6; PMA stimulated): 0%; inhibition at 50 µM (IL-6; PMA stimulated): 0%; inhibition at 10 µM (IL-6; zymosan stimulated): 20%; inhibition at 50 µM (IL-6; zymosan stimulated): 75%; inhibition at 12.5 µM (human granulocytes; [2]): 0%; inhibition at 50 µM (human granulocytes; [2]): 20%; inhibition at 12.5 µM (human granulocytes; [3]): 0%; inhibition at 50 µM (human granulocytes; [3]): 16%
2 | CC[C@H]1OC(=O)[C@H](C)[C@@H](O[C@H]2C[C@@](C)(OC)[C@@H](O)[C@H](C)O2)[C@H](C)[C@@H](O[C@@H]2O[C@H](C)C[C@H](N(C)C)[C@H]2O)[C@](C)(OC)C[C@@H](C)C(=O)[C@H](C)[C@@H](O)[C@]1(C)O [Clarithromycin, clarithromycin, reference compound] | 23 | 0 | 33 | 0 | 0 | 0 | 0 | 0 | 0 | 0 | 0 | 0 | 0 | 7 | 9 | 14 | 0 | 0 | 26 | 33 | inhibition at 10 µM (IL-1α; zymosan stimulated): 36%; inhibition at 50 µM (IL-1α; zymosan stimulated): 59%; inhibition at 10 µM (IL-6; LPS stimulated): 11%; inhibition at 50 µM (IL-6; LPS stimulated): 0%; inhibition at 10 µM (IL-6; PMA stimulated): 0%; inhibition at 50 µM (IL-6; PMA stimulated): 0%; inhibition at 10 µM (IL-6; zymosan stimulated): 28%; inhibition at 50 µM (IL-6; zymosan stimulated): 0%; inhibition at 12.5 µM (human granulocytes; [2]): 0%; inhibition at 50 µM (human granulocytes; [2]): 3%; inhibition at 12.5 µM (human granulocytes; [3]): 4%; inhibition at 50 µM (human granulocytes; [3]): 19%
3 | CC[C@H]1OC(=O)[C@H](C)[C@@H](O[C@H]2C[C@@](C)(OC)[C@@H](O)[C@H](C)O2)[C@H](C)[C@@H](O[C@@H]2O[C@H](C)C[C@H](N(C)C)[C@H]2O)[C@](C)(O)C[C@@H](C)CN(C(=S)Nc2cccc(C(F)(F)F)c2)[C@H](C)[C@@H](O)[C@]1(C)O [Compound 4] | 41 | 100 | 52 | 100 | 0 | 52 | 39 | 100 | 50 | 100 | 36 | 97 | 30 | 102 | 50 | 100 | 74 | 82 | 54 | 92 | inhibition at 10 µM (IL-1α; zymosan stimulated): 60%; inhibition at 50 µM (IL-1α; zymosan stimulated): 13%; inhibition at 10 µM (IL-6; LPS stimulated): 38%; inhibition at 50 µM (IL-6; LPS stimulated): 100%; inhibition at 10 µM (IL-6; zymosan stimulated): 0%; inhibition at 50 µM (IL-6; zymosan stimulated): 100%; inhibition at 12.5 µM (human granulocytes; [2]): 16%; inhibition at 50 µM (human granulocytes; [2]): 85%; inhibition at 12.5 µM (human granulocytes; [3]): 0%; inhibition at 50 µM (human granulocytes; [3]): 100%
